Legend:
Assay in all cases: relative viability (nuclei count vs DMSO), 5 days (fraction); higher = more cells survive
[1] = compound: Cc1ccc(-n2nc(C(C)(C)C)cc2NC(=O)Nc2ccc(OCCN3CCOCC3)c3ccccc23)cc1 [Doramapimod] + CC(=O)c1c(C)c2cnc(Nc3ccc(N4CCNCC4)cn3)nc2n(C2CCCC2)c1=O [Palbociclib] (partner 0.5 µM)
In short: (§1)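 For relative viability, nuclei counts in treated wells were divided by those in vehicle wells. Lung cancer cell lines had been pin-tool dosed in 1536-well plates the day after seeding and cultured for 5 days, then fixed and stained in one step (final 0.05% Triton X-100, 1% formaldehyde, 1 ug/ml Hoechst) and imaged at 4×. Doses were one drug alone or a fixed anchor-drug dose plus five library-drug doses (not always all listed) in √10 steps, and values are duplicate-plate medians.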

Doramapimod + Vorinostat = compound: Cc1ccc(-n2nc(C(C)(C)C)cc2NC(=O)Nc2ccc(OCCN3CCOCC3)c3ccccc23)cc1 [Doramapimod] + O=C(CCCCCCC(=O)Nc1ccccc1)NO [Vorinostat] (partner 1 µM)
In short: as §1

Doramapimod + Linsitinib = compound: Cc1ccc(-n2nc(C(C)(C)C)cc2NC(=O)Nc2ccc(OCCN3CCOCC3)c3ccccc23)cc1 [Doramapimod] + C[C@]1(O)C[C@@H](c2nc(-c3ccc4ccc(-c5ccccc5)nc4c3)c3c(N)nccn32)C1 [Linsitinib] (partner 1 µM)
In short: as §1

RAF265 + Linsitinib = compound: Cn1c(Nc2ccc(C(F)(F)F)cc2)nc2cc(Oc3ccnc(-c4ncc(C(F)(F)F)[nH]4)c3)ccc21 [RAF265] + C[C@]1(O)C[C@@H](c2nc(-c3ccc4ccc(-c5ccccc5)nc4c3)c3c(N)nccn32)C1 [Linsitinib] (partner 1 µM)
In short: as §1

Row | Cell Line | relative viability ([1]; first compound 0.02 µM) | relative viability ([1]; first compound 0.06325 µM) | relative viability ([1]; first compound 0.2 µM) | relative viability ([1]; first compound 0.6325 µM) | relative viability ([1]; first compound 2 µM) | relative viability (Doramapimod + Vorinostat; first compound 0.02 µM) | relative viability (Doramapimod + Vorinostat; first compound 0.06325 µM) | relative viability (Doramapimod + Vorinostat; first compound 0.2 µM) | relative viability (Doramapimod + Vorinostat; first compound 0.6325 µM) | relative viability (Doramapimod + Vorinostat; first compound 2 µM) | relative viability (Doramapimod + Linsitinib; first compound 0.02 µM) | relative viability (Doramapimod + Linsitinib; first compound 0.06325 µM) | relative viability (Doramapimod + Linsitinib; first compound 0.2 µM) | relative viability (Doramapimod + Linsitinib; first compound 0.6325 µM) | relative viability (Doramapimod + Linsitinib; first compound 2 µM) | relative viability (RAF265 + Linsitinib; first compound 0.01 µM) | relative viability (RAF265 + Linsitinib; first compound 0.03162 µM) | relative viability (RAF265 + Linsitinib; first compound 0.1 µM) | relative viability (RAF265 + Linsitinib; first compound 0.3162 µM) | relative viability (RAF265 + Linsitinib; first compound 1 µM)
1 | NCI-H2170 | 0.381 | 0.421 | 0.413 | 0.387 | 0.377 | 0.737 | 0.882 | 0.704 | 0.844 | 0.814 |  |  |  |  |  |  |  |  |  | 
2 | HCC-366 | 0.397 | 0.379 | 0.373 | 0.412 | 0.351 | 0.329 | 0.421 | 0.44 | 0.42 | 0.32 | 0.561 | 0.515 | 0.475 | 0.673 | 0.548 | 0.674 | 0.69 | 0.881 | 0.748 | 0.459
3 | NCI-H2347 | 0.474 | 0.466 | 0.483 | 0.383 | 0.513 | 0.652 | 0.555 | 0.569 | 0.644 | 0.538 | 1.04 | 0.974 | 0.96 | 1.01 | 0.846 | 1.2 | 0.923 | 0.924 | 0.744 | 0.544
4 | COR-L 105 | 0.398 | 0.421 | 0.404 | 0.449 | 0.351 | 0.671 | 0.881 | 0.763 | 1 | 0.764 | 0.968 | 0.94 | 0.853 | 1.01 | 0.735 | 1.17 | 0.882 | 0.976 | 0.725 | 0.504
5 | 201T | 0.363 | 0.351 | 0.321 | 0.368 | 0.336 | 0.994 | 1.03 | 1.06 | 0.672 | 1 | 1.05 | 1.07 | 0.971 | 1.03 | 0.958 | 1.04 | 0.982 | 0.994 | 0.89 | 0.885
6 | NCI-H2126 | 0.378 | 0.352 | 0.373 | 0.336 | 0.326 | 0.792 | 0.765 | 0.763 | 0.671 | 0.671 | 0.668 | 0.678 | 0.642 | 0.693 | 0.625 | 0.712 | 0.691 | 0.743 | 0.574 | 0.49
7 | LC-2-ad | 0.521 | 0.467 | 0.502 | 0.529 | 0.529 | 0.753 | 0.748 | 0.742 | 0.745 | 0.764 | 0.856 | 0.802 | 0.95 | 0.88 | 0.684 | 0.807 | 0.762 | 0.727 | 0.316 | 0.293
8 | NCI-H2085 | 0.525 | 0.527 | 0.5 | 0.52 | 0.529 | 0.827 | 0.821 | 0.782 | 0.872 | 0.722 | 0.898 | 0.939 | 0.873 | 0.876 | 0.864 | 0.894 | 0.945 | 0.938 | 0.98 | 0.917
9 | NCI-H358 | 0.153 | 0.137 | 0.138 | 0.195 | 0.133 | 0.69 | 0.669 | 0.66 | 0.762 | 0.594 | 0.68 | 0.598 | 0.611 | 0.722 | 0.667 | 0.843 | 0.565 | 0.443 | 0.37 | 0.267
10 | H3255 | 0.334 | 0.302 | 0.318 | 0.292 | 0.345 | 0.864 | 0.884 | 0.818 |  | 0.84 | 1.02 | 0.908 | 0.913 | 0.97 | 0.871 | 1 | 0.942 | 0.929 | 0.137 | 0.716
11 | NCI-H2228 | 0.797 | 1.04 | 0.746 | 0.686 | 0.66 | 0.588 | 0.91 | 0.496 | 0.894 | 0.516 | 0.762 | 0.449 | 0.632 | 0.65 | 0.464 | 0.628 | 0.698 | 0.409 | 0.436 | 0.327
12 | CAL-12T | 0.413 | 0.45 | 0.421 | 0.434 | 0.511 | 0.621 | 0.787 | 0.713 | 0.945 | 0.754 | 0.806 | 0.804 | 0.745 | 0.851 | 0.627 | 0.969 | 0.659 | 0.671 | 0.43 | 0.4
13 | A-427 | 0.488 | 0.521 | 0.52 |  | 0.54 | 0.905 | 0.889 | 0.904 |  | 0.904 | 1.17 | 1.21 | 1.24 |  | 1.16 | 1.15 | 1.07 | 1.16 | 0.676 | 0.499
14 | HARA | 0.232 | 0.275 | 0.262 | 0.297 | 0.264 | 0.532 | 0.496 | 0.547 | 0.506 | 0.486 | 0.943 | 0.901 | 0.904 | 0.987 | 0.805 | 0.904 | 0.715 | 0.891 | 0.608 | 0.406

— the supplement of paper PMC10307832
